# From patent EP4559919A1, “TRICYCLIC-CONTAINING MACROCYCLIC COMPOUND AND USE THEREOF” (Medshine Discovery Inc., priority 2022, dated 2024)
# How the values were obtained:
# CYP2D6 = target: T1, CYP2D6 (Homo sapiens, UniProt P10635); test: Cytochrome P450 isozyme inhibitory activity test (human liver microsomes); type: in vitro ADME; conditions: human liver microsomes 0.1 mg/mL
# T1 construct: Mixed human liver microsomes (HLM) purchased from Corning Inc; tissue Corning Inc; host or cells: pooled human liver microsomes
# T1 sequence (P10635 whole entry): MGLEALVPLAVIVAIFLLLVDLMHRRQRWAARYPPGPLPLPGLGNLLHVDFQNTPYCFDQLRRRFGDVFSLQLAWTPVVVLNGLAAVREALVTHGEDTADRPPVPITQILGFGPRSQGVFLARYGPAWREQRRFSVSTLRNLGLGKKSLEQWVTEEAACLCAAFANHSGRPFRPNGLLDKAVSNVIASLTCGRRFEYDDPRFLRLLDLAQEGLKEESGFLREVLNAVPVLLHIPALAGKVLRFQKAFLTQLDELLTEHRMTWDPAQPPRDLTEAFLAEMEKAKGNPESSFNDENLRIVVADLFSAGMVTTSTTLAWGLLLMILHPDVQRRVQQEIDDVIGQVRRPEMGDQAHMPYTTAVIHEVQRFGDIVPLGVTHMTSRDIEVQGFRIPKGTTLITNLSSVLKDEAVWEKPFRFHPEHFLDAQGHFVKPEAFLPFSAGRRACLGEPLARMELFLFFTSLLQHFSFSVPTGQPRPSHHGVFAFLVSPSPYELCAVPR
# ALK(G1202R/L1196M) = target: T2, ALK(G1202R/L1196M) (Homo sapiens, UniProt Q9UM73, G1202R/L1196M); test: In vitro kinase inhibitory activity assay, Experimental method 2 (ADP-Glo); type: biochemical; conditions: Experimental method 2; ATP 5.0 µM, substrate IGF1; read-out: Kinase half maximal inhibitory concentration IC50 ALK^G1202R/L1196M
# T2 construct: purchased Carna
# T2 sequence (Q9UM73 19-1620 L1196M/G1202R): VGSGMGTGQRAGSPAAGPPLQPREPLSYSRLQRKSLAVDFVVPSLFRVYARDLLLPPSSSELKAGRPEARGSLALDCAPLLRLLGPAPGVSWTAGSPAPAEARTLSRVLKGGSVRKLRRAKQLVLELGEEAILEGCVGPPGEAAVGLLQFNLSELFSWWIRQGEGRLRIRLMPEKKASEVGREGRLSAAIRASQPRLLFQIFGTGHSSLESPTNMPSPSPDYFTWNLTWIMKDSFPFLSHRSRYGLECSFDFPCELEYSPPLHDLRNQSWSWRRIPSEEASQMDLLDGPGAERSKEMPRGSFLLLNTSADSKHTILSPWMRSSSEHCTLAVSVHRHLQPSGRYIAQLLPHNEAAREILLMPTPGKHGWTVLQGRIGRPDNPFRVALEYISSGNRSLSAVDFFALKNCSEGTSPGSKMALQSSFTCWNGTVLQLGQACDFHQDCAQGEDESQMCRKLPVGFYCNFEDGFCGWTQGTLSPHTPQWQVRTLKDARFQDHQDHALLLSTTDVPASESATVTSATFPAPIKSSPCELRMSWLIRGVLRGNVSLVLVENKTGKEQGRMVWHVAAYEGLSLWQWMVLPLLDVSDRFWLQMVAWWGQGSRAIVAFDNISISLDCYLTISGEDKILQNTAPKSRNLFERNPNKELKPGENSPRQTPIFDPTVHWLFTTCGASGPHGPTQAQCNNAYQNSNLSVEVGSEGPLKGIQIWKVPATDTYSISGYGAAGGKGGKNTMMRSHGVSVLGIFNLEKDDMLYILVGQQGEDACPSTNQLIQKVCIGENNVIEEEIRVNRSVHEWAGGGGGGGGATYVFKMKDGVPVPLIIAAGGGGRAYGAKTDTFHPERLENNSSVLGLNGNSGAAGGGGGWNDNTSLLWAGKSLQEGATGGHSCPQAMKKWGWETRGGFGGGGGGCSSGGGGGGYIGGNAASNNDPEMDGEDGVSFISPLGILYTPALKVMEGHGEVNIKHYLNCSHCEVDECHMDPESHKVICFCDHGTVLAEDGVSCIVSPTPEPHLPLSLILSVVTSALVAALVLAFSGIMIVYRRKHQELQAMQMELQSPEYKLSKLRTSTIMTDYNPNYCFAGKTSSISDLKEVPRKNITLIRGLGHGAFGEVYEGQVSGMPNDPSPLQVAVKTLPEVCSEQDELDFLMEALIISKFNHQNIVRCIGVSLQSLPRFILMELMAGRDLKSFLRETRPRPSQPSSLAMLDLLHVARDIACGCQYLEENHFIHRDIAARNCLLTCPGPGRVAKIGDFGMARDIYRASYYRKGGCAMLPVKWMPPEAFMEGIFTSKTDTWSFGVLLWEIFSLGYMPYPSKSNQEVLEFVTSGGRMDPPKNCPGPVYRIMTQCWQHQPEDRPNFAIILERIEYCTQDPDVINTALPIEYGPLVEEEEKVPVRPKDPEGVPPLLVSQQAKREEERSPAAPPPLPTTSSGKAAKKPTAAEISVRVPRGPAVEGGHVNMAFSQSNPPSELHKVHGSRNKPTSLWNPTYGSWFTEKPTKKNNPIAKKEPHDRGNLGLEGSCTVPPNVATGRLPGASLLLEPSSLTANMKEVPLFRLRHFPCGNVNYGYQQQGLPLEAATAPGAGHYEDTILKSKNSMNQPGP
# Ba/F3-TEL-TRKB = test: Anti-proliferative activity test on Ba/F3 cell lines (CellTiter-Glo); type: cell-based; conditions: Mus musculus, BaF3; 72 hours; read-out: Half maximal inhibitory concentration IC50 for cells Ba/F3-TEL-TRKB
# Summary of the method: (§1)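 Cells (2000/well) were exposed for 72 h at 37°C, 5% CO2, to an 8-point 3-fold series (1000× plate starting at 1 µM), with 0.1% DMSO final. Viability was read by CellTiter-Glo luminescence. Inhibition was normalised to DMSO (Max) and cell-free (Min) controls, and IC50 was taken from the curves.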
# [1] = test system: Ba/F3-EML4-ALK-G1202R/L1196M; test: as above; type: cell-based; conditions: Ba/F3 EML4-ALK-G1202R-L1196M; 72 hours; read-out: Half maximal inhibitory concentration IC50 for cells Ba/F3-EML4-ALK-G1202R/L1196 M
# Summary of the method: as §1
# CYP1A2 = target: T3, CYP1A2 (Homo sapiens, UniProt P05177); test: Cytochrome P450 isozyme inhibitory activity test (human liver microsomes); type: in vitro ADME; conditions: human liver microsomes 0.1 mg/mL
# T3 construct: Mixed human liver microsomes (HLM) purchased from Corning Inc; tissue Corning Inc; host or cells: pooled human liver microsomes
# T3 sequence (P05177 1-516): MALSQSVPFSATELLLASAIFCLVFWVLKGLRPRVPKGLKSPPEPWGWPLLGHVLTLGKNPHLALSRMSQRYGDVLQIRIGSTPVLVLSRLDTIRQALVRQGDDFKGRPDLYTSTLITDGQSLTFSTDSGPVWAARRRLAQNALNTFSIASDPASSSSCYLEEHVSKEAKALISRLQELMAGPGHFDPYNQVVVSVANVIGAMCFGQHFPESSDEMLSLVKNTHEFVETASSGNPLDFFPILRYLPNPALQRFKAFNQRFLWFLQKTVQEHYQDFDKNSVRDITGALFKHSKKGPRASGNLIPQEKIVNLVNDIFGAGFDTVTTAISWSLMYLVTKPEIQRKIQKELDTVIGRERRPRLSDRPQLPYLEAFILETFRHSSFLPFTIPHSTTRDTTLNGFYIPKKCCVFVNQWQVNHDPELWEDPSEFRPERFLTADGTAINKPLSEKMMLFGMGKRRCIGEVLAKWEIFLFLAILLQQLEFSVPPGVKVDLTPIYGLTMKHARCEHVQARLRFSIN
structure (smiles),measurement,setting,value
Cc1nn2cc3c4nc2c1C(=O)NC1(CC1)COc1ccc(F)cc1CN4[C@H](C(F)F)CO3 [Compound 016],IC50,CYP2D6,> 50000 nM
same,IC50,ALK(G1202R/L1196M),0.9 nM
same,IC50,Ba/F3-TEL-TRKB,0.6 nM
same,IC50,[1],12.5 nM
same,IC50,CYP1A2,> 50000 nM
